Where two headings read alike, the source gives them in different places. Marks after values point to notes of the source that are not given here.
Key:
[1] = tested on: Ilyanassa obsoleta (mud snails); experiment: Endosulfan exposure: biomarker responses in mud snails; settings: 8-hour exposure
[2] = tested on: Palaeomonetes pugio (grass shrimp); format: in vivo
From the text: Purified protein of each cellular parameter was run along side control and treated samples.

[3] = tested on: Ilyanassa obsoleta (mud snails)
Protocol: To determine that the antibodies bound to their specific targets, preliminary experiments were conducted to ensure the validity of the antibody assays. Snails were exposed either to high temperature, cadmium, ethanol, or acetone, homogenized in an SDS/50 mM dithiothreitol buffered solution, subjected to SDS-PAGE, immunoblotted to PVDF membrane, and assayed with at least 3 different antibodies per cellular parameter. […] Purified protein of each cellular parameter was run beside control and treated samples.

[4] = tested on: Ilyanassa obsoleta (mud snails); experiment: Atrazine exposure: biomarker responses in mud snails; format: in vivo; settings: 8-hour exposure
Protocol: Tanks were aerated with air stones. Snails were fed commercially available algal pellets. […]
(§1) Samples for each assay were analyzed in triplicate.
(§2) Sample was then subjected to another protein concentration assay.
(§3) All samples were analyzed in triplicate.

[5] = tested on: Palaeomonetes pugio (grass shrimp); experiment: Atrazine stress: biomarker responses in grass shrimp; format: in vivo; settings: for B-crystallin / Metallo. (metallothionein) / SOD (Mn SOD) / ubiquitin: 8-hour exposure
Protocol: (§4) During the seven-day acclimation, grass shrimp were subject to a […] photosynthetic-active-radiation 14 hour photoperiod at 22° C. […] Dissolved oxygen, ammonia content, and temperature were continually monitored throughout the seven-day chamber acclimation.
Atrazine stress—Grass shrimp were exposed to […], or 1 mg/L of an acetone stock of technical grade atrazine (99%).
(§5) Samples were vortexed for 30 seconds and then centrifuged at 10,000× g for 5 minutes. The supernatant was placed in a new tube for LPO and GSH analyses. Protein concentration of samples were assayed by the method of Ghosh et al. (1988), supra.
(§6) Samples were then boiled for 3 minutes, allowed to sit at 25° C. for 5 minutes, and then centrifuged at 10,000× g for 5 minutes. […] The sample was then subjected to another protein concentration assay.
(§7) Samples were analyzed for LPO and total GSH content following the manufacturer's instruction. Samples for each assay were analyzed in triplicate, and sample means provided independent unit of statistical analysis.
(§8) All samples were analyzed in triplicate. ELISPOT technique on nitrocellulose membrane was employed using a dot blot apparatus.

[6] = tested on: Ilyanassa obsoleta (mud snails); format: in vivo
Protocol: Tanks were aerated with air stones. Snails were fed commercially available algal pellets.
The solvent carrier was water.
No evidence of either was found.
as §1, §2, §3

[7] = tested on: Palaeomonetes pugio (grass shrimp); experiment: Cadmium stress: biomarker responses in grass shrimp; format: in vivo; settings: for Cyt. P450 (cytochrome P450 2E1) / SOD (Mn SOD): 8-hour exposure
Protocol: as §4
Cadmium stress—Grass shrimp were subjected to an 8-hour exposure to 0 M, […], and […] cadmium chloride. The solvent carrier was water.
as §5, §6, §7, §8

[8] = control to high atrazine treatments, grass shrimp
[9] = high: 50 M cadmium chloride, 8-hour exposure
[10] = low: 5 M cadmium chloride, 8-hour exposure

SMILES: O=S1OCC2C(CO1)C1(Cl)C(Cl)=C(Cl)C2(Cl)C1(Cl)Cl (stereo not shown) [Endosulfan, endosulfan]
- B-crystallin ([1]; high: 1 g/L endosulfan): 13 ± 2.7 pg Hsp or B-crystallin/ g total protein
- Hsp26 ([1]; high: 1 g/L endosulfan): 23 ± 3.3 pg Hsp or B-crystallin/ g total protein
- Metallo. (metallothionein) ([1]; high: 1 g/L endosulfan): 14 ± 3.11 ng metallothionein/mg total protein
- B-crystallin ([1]; low: 50 ng/L endosulfan): 12 ± 3.1 pg Hsp or B-crystallin/ g total protein
- Hsp26 ([1]; low: 50 ng/L endosulfan): 20 ± 12.673 pg Hsp or B-crystallin/ g total protein
- Metallo. (metallothionein) ([1]; low: 50 ng/L endosulfan): 19.4 ± 1.99 ng metallothionein/mg total protein
- B-crystallin ([1]; medium: 500 ng/L endosulfan): 11 ± 3.9 pg Hsp or B-crystallin/ g total protein
- Hsp26 ([1]; medium: 500 ng/L endosulfan): 19 ± 5.9 pg Hsp or B-crystallin/ g total protein
- Metallo. (metallothionein) ([1]; medium: 500 ng/L endosulfan): 22.2 ± 3.15 ng metallothionein/mg total protein

SMILES: CC(C)=O [acetone]
- induction of Hsp70 homologues ([2]; immunoblot): inducible by all treatments except ethanol and acetone
- induction of protein detected by Mn SOD antibody (about 23 kDa) ([2]; immunoblot): not by exposure to ethanol or acetone
- induction of proteins detected by Cytochrome P450 2E1 antibody (ca. 53 kDa) ([2]; in vivo): ethanol- and acetone-inducible
- induction of Hsp70 homologues ([3]; immunoblot): inducible by all treatments except ethanol and acetone
- induction of protein detected by Mn SOD antibody (about 26 kDa) ([3]; immunoblot): not by exposure to acetone
- induction of protein detected by Cytochrome P450 2E1 antibody (ca. 50 kDa) ([3]; in vivo): ethanol- and acetone-inducible

SMILES: CCO [ethanol]
- induction of Hsp70 homologues ([2]; in vivo): inducible by all treatments except ethanol and acetone
- induction of protein detected by Mn SOD antibody (about 23 kDa) ([2]; in vivo): not by exposure to ethanol or acetone
- induction of proteins detected by Cytochrome P450 2E1 antibody (ca. 53 kDa) ([2]; in vivo): ethanol- and acetone-inducible
- induction of Hsp70 homologues ([3]; in vivo): inducible by all treatments except ethanol and acetone
- induction of protein detected by Cytochrome P450 2E1 antibody (ca. 50 kDa) ([3]; in vivo): ethanol- and acetone-inducible

SMILES: CCNc1nc(Cl)nc(NC(C)C)n1 [Atrazine, atrazine]
- B-crystallin ([4]; high: 1 mg/L atrazine): 25 ± 2.1 pg Hsp or B-crystallin/ g total protein
- Cyt. P450 (cytochrome P450 2E1 homologue) ([4]; high: 1 mg/L atrazine): 17.8 ± 3.07 relative protein concentrations
- GSH ([4]; high: 1 mg/L atrazine): 83 ± 3.1 mM GSH/ g total protein
- Hsp22 ([4]; high: 1 mg/L atrazine): 6 ± 1.9 pg Hsp or B-crystallin/ g total protein
- Hsp60 ([4]; high: 1 mg/L atrazine): 0.158 ± 0.0086 pg Hsp or B-crystallin/ g total protein
- Hsp70 ([4]; high: 1 mg/L atrazine): 121.8 ± 6.08 pg Hsp or B-crystallin/ g total protein
- LPO ([4]; high: 1 mg/L atrazine): 1.32 ± 0.037 mM LPO/mg total protein
- Metallo (metallothionein) ([4]; high: 1 mg/L atrazine): 8.6 ± 1.72 ng metallothionein/mg total protein
- Mn SOD ([4]; high: 1 mg/L atrazine): 7.8 ± 1.66 relative protein concentrations
- ubiquitin ([4]; high: 1 mg/L atrazine): 41 ± 3.7 ng ubiquitin/ g total protein
- B-crystallin ([4]; low: 1 g/L atrazine): 29 ± 1.3 pg Hsp or B-crystallin/ g total protein
- Cyt. P450 (cytochrome P450 2E1 homologue) ([4]; low: 1 g/L atrazine): 18.0 ± 2.90 relative protein concentrations
- GSH ([4]; low: 1 g/L atrazine): 85 ± 3.6 mM GSH/ g total protein
- Hsp22 ([4]; low: 1 g/L atrazine): 6 ± 2.0 pg Hsp or B-crystallin/ g total protein
- Hsp70 ([4]; low: 1 g/L atrazine): 123.4 ± 7.05 pg Hsp or B-crystallin/ g total protein
- LPO ([4]; low: 1 g/L atrazine): 1.16 ± 0.040 mM LPO/mg total protein
- Metallo (metallothionein) ([4]; low: 1 g/L atrazine): 18.2 ± 2.06 ng metallothionein/mg total protein
- Mn SOD ([4]; low: 1 g/L atrazine): 9.0 ± 1.76 relative protein concentrations
- ubiquitin ([4]; low: 1 g/L atrazine): 42 ± 3.9 ng ubiquitin/ g total protein
- Levels of LPO decreased [5, 8]: 38%
- levels of Hsp60 increased [5, 8]: nearly five-fold
- B-crystallin ([5]; high: 1 mg/L atrazine): 190 ± 27 ng Hsp or B-crystallin/ g total protein
- Metallo. (metallothionein) ([5]; high: 1 mg/L atrazine): 1.7 ± 0.35 ng metallothionein/mg total protein
- SOD (Mn SOD) ([5]; high: 1 mg/L atrazine): 7.9 ± 1.86 g SOD/ mg total protein
- B-crystallin ([5]; low: 1 g/L atrazine): 290 ± 27 ng Hsp or B-crystallin/ g total protein
- Metallo. (metallothionein) ([5]; low: 1 g/L atrazine): 1.4 ± 0.17 ng metallothionein/mg total protein
- SOD (Mn SOD) ([5]; low: 1 g/L atrazine): 4.3 ± 0.23 g SOD/ mg total protein
- ubiquitin ([5]; low: 1 g/L atrazine): 1.44 ± 0.068 nanog ubiquitin/ g total protein
- B-crystallin ([5]; medium: 500 g/L atrazine): 250 ± 45 ng Hsp or B-crystallin/ g total protein
- Metallo. (metallothionein) ([5]; medium: 500 g/L atrazine): 1.8 ± 0.45 ng metallothionein/mg total protein
- SOD (Mn SOD) ([5]; medium: 500 g/L atrazine): 4.6 ± 1.61 g SOD/ mg total protein
- ubiquitin ([5]; medium: 500 g/L atrazine): 1.38 ± 0.066 nanog ubiquitin/ g total protein

SMILES: [Cl][Cd][Cl] [Cadmium Chloride, cadmium chloride]
- induction of protein detected by Mn SOD antibody (about 23 kDa) ([2]; immunoblot): inducible by both heat stress and cadmium
- induction of proteins detected by Cytochrome P450 2E1 antibody (ca. 53 kDa) ([2]; immunoblot): did not elicit significant accumulation
- induction of proteins detected by metallothionein antibody (ca. 7 k to 12 kDa) ([2]; immunoblot): cadmium-inducible
- Metallothionine increase in mean levels compared to the control ([6]; high CdCl2 concentrations, mud snails): more than a six-fold increase
- Cyt. P450 (cytochrome P450 2E1 homologue) [6, 9]: 27.4 ± 3.14 relative protein concentrations
- LPO [6, 9]: 1.16 ± 0.093 mM LPO/mg total protein
- Cyt. P450 (cytochrome P450 2E1 homologue) [6, 10]: 28.6 ± 3.11 relative protein concentrations
- Hsp60 [6, 10]: 0.419^b ± pg Hsp or B-crystallin/ g total protein
- LPO [6, 10]: 1.1 mM LPO/mg total protein
- Metallothionine increase in mean levels compared to the control ([7]; high CdCl2 concentrations, grass shrimp): more than a six-fold increase
- Cyt. P450 (cytochrome P450 2E1) ([7]; high: 50 uM cadmium chloride): 12.9 ± 1.26 relative protein concentrations
- SOD (Mn SOD) ([7]; high: 50 uM cadmium chloride): 4.0 ± 0.16 g SOD/ mg total protein
- Cyt. P450 (cytochrome P450 2E1) ([7]; low: 1 uM cadmium chloride): 14.5 ± 1.19 relative protein concentrations
- SOD (Mn SOD) ([7]; low: 1 uM cadmium chloride): 3.3 ± 0.12 g SOD/ mg total protein
- Cyt. P450 (cytochrome P450 2E1) ([7]; medium: 5 uM cadmium chloride): 13.4 ± 1.48 relative protein concentrations
- SOD (Mn SOD) ([7]; medium: 5 uM cadmium chloride): 4.3 ± 0.80 g SOD/ mg total protein
- induction of protein detected by Cytochrome P450 2E1 antibody (ca. 50 kDa) ([3]; immunoblot): did not elicit significant accumulation
- induction of protein detected by Mn SOD antibody (about 26 kDa) ([3]; immunoblot): inducible by both heat stress and cadmium

Source: patent US20030138812A1, “Assessment of ecosystem health by evaluating multiple biomarkers in a nonhuman organism” (priority 2000, published 2003)
